Laboratory results from PMC7003794, “Chemical Proteomics and Phenotypic Profiling Identifies the Aryl Hydrocarbon Receptor as a Molecular Target of the Utrophin Modulator Ezutromid” (Angewandte Chemie (International Ed. in English), 2020).

Target: T1, aryl hydrocarbon receptor (AhR) (Mus musculus, UniProt P30561)
T1 construct: purified mouse AhR:ARNT complex; with ARNT
Test: fluorescence quenching assay (intrinsic ligand fluorescence) with purified AhR:ARNT
Format: binding

T1 sequence (P30561 10-848): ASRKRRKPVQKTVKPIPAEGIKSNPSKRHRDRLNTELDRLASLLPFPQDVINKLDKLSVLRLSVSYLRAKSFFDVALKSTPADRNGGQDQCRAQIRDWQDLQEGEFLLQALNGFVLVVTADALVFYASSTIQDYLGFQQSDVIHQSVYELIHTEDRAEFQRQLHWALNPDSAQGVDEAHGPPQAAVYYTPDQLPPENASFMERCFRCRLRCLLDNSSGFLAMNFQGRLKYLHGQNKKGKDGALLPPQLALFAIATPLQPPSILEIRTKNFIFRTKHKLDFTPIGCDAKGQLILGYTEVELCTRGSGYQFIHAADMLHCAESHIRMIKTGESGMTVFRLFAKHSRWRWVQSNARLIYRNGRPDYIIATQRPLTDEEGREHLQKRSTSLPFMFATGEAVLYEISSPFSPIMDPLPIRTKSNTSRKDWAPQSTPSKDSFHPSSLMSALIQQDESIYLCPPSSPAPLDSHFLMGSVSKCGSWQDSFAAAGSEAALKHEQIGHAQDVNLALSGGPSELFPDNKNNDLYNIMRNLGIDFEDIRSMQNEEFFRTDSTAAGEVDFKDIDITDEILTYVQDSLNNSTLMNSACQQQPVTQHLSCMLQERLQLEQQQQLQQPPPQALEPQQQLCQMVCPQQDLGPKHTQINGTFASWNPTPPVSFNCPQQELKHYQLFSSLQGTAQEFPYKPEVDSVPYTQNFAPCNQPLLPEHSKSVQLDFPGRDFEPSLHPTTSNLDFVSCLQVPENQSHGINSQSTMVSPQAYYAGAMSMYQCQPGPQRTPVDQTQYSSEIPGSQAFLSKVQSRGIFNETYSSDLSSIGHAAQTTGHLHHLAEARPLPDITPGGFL
T1 sequence (P53762 2-791 partner): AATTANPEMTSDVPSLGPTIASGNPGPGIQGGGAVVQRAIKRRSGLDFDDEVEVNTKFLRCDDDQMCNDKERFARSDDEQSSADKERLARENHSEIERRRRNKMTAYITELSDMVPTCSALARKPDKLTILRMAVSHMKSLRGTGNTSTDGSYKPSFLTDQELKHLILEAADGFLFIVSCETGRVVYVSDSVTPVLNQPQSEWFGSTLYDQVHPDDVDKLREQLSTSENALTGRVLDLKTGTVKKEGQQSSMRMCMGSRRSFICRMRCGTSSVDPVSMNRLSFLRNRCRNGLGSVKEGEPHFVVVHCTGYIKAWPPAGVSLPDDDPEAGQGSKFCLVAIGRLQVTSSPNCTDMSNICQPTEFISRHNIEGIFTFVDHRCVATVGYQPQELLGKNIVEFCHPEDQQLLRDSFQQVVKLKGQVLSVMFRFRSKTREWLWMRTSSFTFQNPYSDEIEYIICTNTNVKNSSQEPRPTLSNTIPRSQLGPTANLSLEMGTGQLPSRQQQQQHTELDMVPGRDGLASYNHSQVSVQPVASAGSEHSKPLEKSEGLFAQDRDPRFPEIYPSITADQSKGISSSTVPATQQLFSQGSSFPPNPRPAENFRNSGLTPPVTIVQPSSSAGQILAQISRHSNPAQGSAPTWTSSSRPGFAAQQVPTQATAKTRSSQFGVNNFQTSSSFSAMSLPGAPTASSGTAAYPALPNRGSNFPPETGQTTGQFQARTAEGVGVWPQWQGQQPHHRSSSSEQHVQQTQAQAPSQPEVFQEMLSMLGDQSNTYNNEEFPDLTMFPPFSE

CCS(=O)(=O)c1ccc2oc(-c3ccc4ccccc4c3)nc2c1 [compound 1, ezutromid]
Kd: 50.1 ± 22.1 nM
